Where two headings read alike, the source gives them in different places.
What was measured:
Assay type in all cases: cell-based, human
[1] = test system: MCF-7 breast cancer cells; assay: Cell growth inhibition (cell number, total nucleic acid content); conditions: for Inhibition of proliferation, in words: MCF-7 cells, 1, 3 or 6 days, FIG. 7; for IC50: MCF-7 cells, average of the day 3 and day 6 determinations, read-out: Inhibition of cell proliferation (IC50)
Protocol: Human colon carcinoma COLO205 and HT-29 cell lines (American Type Culture Collection (ATTC), Manassas, Va.) and the leukemia cell line HL-60 were maintained at 37° C. in 5% CO2 air in RPMI 1640 medium supplemented with 10% heat-inactivated fetal bovine serum (Gibco BRL, Grand Island, N.Y.), 100 units/mL penicillin, 100 μg/mL streptomycin and 2 mM 1-glutamine. The human gastric carcinoma AGS cell line (CCRC 60102), obtained from the Food Industry Research and Development Institute (Hsinchu, Taiwan), was maintained as described above, except that DMEM/F 12 was used as the medium rather than the RPMI 1640 medium. The human breast carcinoma MCF-7 cell line MCF-7 (ATTC) was cultured in RPMI 1640 medium supplemented with 5% fetal calf serum at 37° C. in a humidified atmosphere of 5% CO2 in air. The mouse macrophage cell line RAW 264.7 was maintained in RPMI 1640 supplemented with 100 U/ml penicillin, 100 μg/ml streptomycin, and 10% heat-inactivated fetal calf serum.
Cancer cells (2×10^5) were plated in 12-well Petri dishes. The next day, the medium was changed and treated with different concentration of the test compounds or compositions for 24 h. Where individual compounds were to be tested, stock solutions of the compound was prepared to contain 200 μM of the individual hydroxylated or non-hydroxylated PMF in dimethylsulfoxide (DMSO). Control cells were treated with DMSO to a final concentration of 0.05% (v/v). Depending on the objective of the particular experiment, cells were treating with test compound or composition for 1, 3 or 6 days. At the end of incubation, cells were harvested for cell count using a hemocytometer and measuring the cellular total nucleic acid content with the CyQUANT Cell Proliferation Assay Kit (Molecular Probes).
FIG. 7 presents cell number data, where cell numbers of cells treated to PMFs are presented as a percentage of control cells. The IC50 values for inhibition of cell proliferation are presented in Table 15 in which the concentration inhibiting cell growth by 50%, IC50, is presented as the average of the day 3 and day 6 determinations. The apparent minimal effective concentrations, ECmin, for induction of cell death, apoptosis, and increase in [Ca^2+]i are also indicated.

[2] = test system: [Ca^2+]i in MCF-7 cells; assay: Intracellular calcium measurement (fluo-3); conditions: for Intracellular Ca^2+ levels, in words: 50-100 μM, day 6; for Basal level of [Ca^2+]i, in words: fluo-3/AM, day 3 and 6, dose-dependent
Protocol: Concentration of intracellular free Ca^2+ ([Ca^2+]i) was measured with Ca^2+ indicators fura-2 and fluo-3, as described in detail previously, for example, in Sergeev (2004) J. Steroid Biochem. Mol. Biol. 89-90:419-425. For [Ca^2+]i measurements with fluo-3, cells grown in the 96-well, black-wall plates were loaded with 2 μM of fluo-3/AM (Molecular Probes) in Dulbecco's PBS (D-PBS) supplemented with 0.1% DMSO for 40 min at 37° C. Fluorescence (485 nm excitation, 530 nm emission) was measured in the FLx800 plate reader, as described above. For [Ca^2+]i measurements with fura-2, cells grown on coverslips were loaded with 1 μM of fura-2/AM (Molecular Probes) in D-PBS supplemented with 0.1% DMSO and 0.01% Pluronic F-127 for 40 min at 37° C. The dynamics of intracellular Ca^2+ was assessed with cells in the microincubation chamber (37.0±0.2° C.) on a NIKON ECLIPSE TE-300 inverted microscope equipped for epifluorescence, ratiometric, digital imaging. The images were captured using SUPERFLUOR 40× 1.3 NA oil-immersion objective (Nikon) and COOLSNAPFX digital CCD camera (Photometrics), ratioed (340/380 nm excitation, 510 nm emission) on a pixel-by-pixel basis, and stored for analysis. Image analysis was performed using METAFLUOR 6.3 software (Molecular Devices/Universal Imaging).

[3] = test system: Ca^2+ influx in MCF-7 cells; assay: Ca2+ influx (Mn2+ entry rate, fura-2 quench); conditions: for Ca^2+ influx, in words: 25 μM; for Increase of Ca^2+ influx (Ca^2+ entry rates): compound 4: 6.25 μM, compound 5: 12.5 μM
Protocol: To evaluate Ca^2+ influx from the extracellular space, the Mn^2+ entry rate, as a reporter of Ca^2+ influx, was measured. The images were recorded at excitation of 360 nm (the fura-2 isosbestic point) and 2 mM of extracellular Mn^2+. The rates of Ca^2+ entry were estimated from the slope of the liner portion of curves of the fura-2 fluorescence quench by Mn^2+. To evaluate Ca^2+ release from the intracellular stores, cells grown on coverslips were placed in D-PBS, and the mobilizer of the endoplasmic reticulum Ca^2+-stores, thapsigargin (1 μM), was added after recording the basal [Ca^2+]i. The peak values of the [Ca^2+]i increase, indicating the filling level of the Ca^2+-stores, were measured with fura-2.
To investigate mechanism of a sustained increase in [Ca^2+]i after treatment with PMFs, the rates of the background Ca^2+ influx from the extracellular space and the magnitudes of Ca^2+ release from the endoplasmic reticulum stores with thapsigargin were measured in the treated cells using methods described above.
In FIG. 11A through 11D, the concentration for each PMF was as follows: compound 4: 6.25 μM; compound 5: 12.5 μM; compound 6: 25 μM; and compound 7: 25 μM. […] The Ca^2+ entry rates (C, D) are presented as tangents of the linear portions of the fura-2 quench curves. Data in panel C are presented as means±SE for control cells or cells treated with PMFs 3 days (black bars) or 6 days (gray bars). […] Mn^2+ or thapsigargin was added after recording the basal level of fluorescence or basal [Ca^2+]i for 30-60 s.

IC50 ([1]; Homo sapiens, MCF7) | SMILES | Inhibition of proliferation, in words [1] | IC50 [1] | Increase in [Ca^2+]i (ECmin, apparent minimal effective concentration) [2] | Intracellular Ca^2+ levels, in words [2] | Ca^2+ influx, in words [3] | Basal level of [Ca^2+]i, in words [2] | Increase of Ca^2+ influx (Ca^2+ entry rates) [3]
 | COc1ccc(-c2oc3c(OC)c(OC)c(OC)c(OC)c3c(=O)c2OC)cc1OC [D, 3,5,6,7,8,3,4-heptamethoxyflavone, reference compound] | inhibited proliferation of MCF-7 breast cancer cells in a dose- and time-dependent fashion | > 50 µM | >50 µM | only a trend in increasing intracellular Ca^2+ levels | did not significantly increase Ca^2+ influx |  | 
2.5 µM | COc1ccc(-c2oc3c(OC)c(OC)c(OC)c(O)c3c(=O)c2OC)cc1OC [Compound C, 5-hydroxy-3,6,7,8,3′,4′-hexamethoxyflavone] | inhibited proliferation of MCF-7 breast cancer cells in a dose- and time-dependent fashion |  | 1.56 µM |  |  | induced an increase in the basal level of [Ca^2+]i | 1.8 fold
> 50 µM | COc1ccc(-c2cc(=O)c3c(OC)c(OC)c(OC)cc3o2)cc1OC [Compound 7, 5,6,7,3′,4′-pentamethoxyflavone, reference compound] | inhibited proliferation of MCF-7 breast cancer cells in a dose- and time-dependent fashion |  | >50 µM | only a trend in increasing intracellular Ca^2+ levels | did not significantly increase Ca^2+ influx |  | 
10.5 µM | COc1ccc(-c2cc(=O)c3c(OC)c(OC)c(OC)cc3o2)cc1O [Compound 5, 3′-hydroxy-5,6,7,4′-tetramethoxyflavone] | inhibited proliferation of MCF-7 breast cancer cells in a dose- and time-dependent fashion |  | 3.125 µM |  |  | induced an increase in the basal level of [Ca^2+]i | 1.6 fold

Reference: US20140039044A1, “Hydroxylated Polymethoxyflavone Compositions” (WLLGEN, INC., priority 2006, published 2014)
